Assay [1] relates to TNF. The assay is described as follows: TNF IC50 (column of Table 1; method not in the text shown). It is filed as cell-based.
A further assay has as its target T1, SIRT1 (Homo sapiens, UniProt Q96EB6).
T1 sequence (Q96EB6 1-747): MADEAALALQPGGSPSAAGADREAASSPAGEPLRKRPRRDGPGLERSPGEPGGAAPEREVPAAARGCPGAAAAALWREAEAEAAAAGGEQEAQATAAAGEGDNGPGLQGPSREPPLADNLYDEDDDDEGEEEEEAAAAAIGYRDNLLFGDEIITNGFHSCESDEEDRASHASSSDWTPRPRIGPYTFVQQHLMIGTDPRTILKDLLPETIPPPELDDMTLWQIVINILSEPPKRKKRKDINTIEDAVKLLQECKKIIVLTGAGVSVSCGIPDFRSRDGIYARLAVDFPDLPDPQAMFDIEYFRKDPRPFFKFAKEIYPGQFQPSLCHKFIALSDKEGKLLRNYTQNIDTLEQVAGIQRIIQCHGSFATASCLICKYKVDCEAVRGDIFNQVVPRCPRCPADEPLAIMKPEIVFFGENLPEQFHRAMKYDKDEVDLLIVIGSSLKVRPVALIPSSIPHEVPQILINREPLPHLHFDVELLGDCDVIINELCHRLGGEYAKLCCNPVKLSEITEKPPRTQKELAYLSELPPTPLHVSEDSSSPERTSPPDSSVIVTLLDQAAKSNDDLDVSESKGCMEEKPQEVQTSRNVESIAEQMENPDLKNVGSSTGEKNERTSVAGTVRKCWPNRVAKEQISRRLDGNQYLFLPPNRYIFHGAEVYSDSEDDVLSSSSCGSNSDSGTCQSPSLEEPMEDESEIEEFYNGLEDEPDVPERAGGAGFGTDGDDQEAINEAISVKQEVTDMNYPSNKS
The assay is described as follows: Mass spectrometry based assay to identify modulators of SIRT1 activity (deacetylation of p53-based acetylated peptide substrate). Format: biochemical. As to conditions: for Emax: 25 min, read-out: % FOLD ACT. (percent maximum fold activation); for Emax / EC1.5: SIRT1 activation. The method in brief: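 His-tagged human SIRT1 (10 nM, E. coli) incubated 25 min at 25 °C with […] p53-derived acetylated 5TMR peptide and 120 μM βNAD+ in pH 8 Tris-acetate buffer, then formic acid-stopped. Mass spectrometry quantifies acetylated vs deacetylated peptide; nicotinamide and DMSO controls.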

The subject of assay [2] is TNF. Description: TNF IC50 (column of Table 1; method not shown). It is filed as cell-based.

Structures are written as SMILES.

One may read the IC50 as the concentration that gives 50% inhibition. Higher therefore signals weaker potency in that assay. Regarding `CC1CCN(C(=O)Nc2ccncc2)c2nc(-c3cccc(C(F)(F)F)c3)ccc21` (stereo not drawn) [Compound 786, 4-methyl-N-(pyridin-4-yl)-7-(3-(trifluoromethyl)phenyl)-3,4-dihydro-1,8-naphthyridine-1(2H)-carboxamide], the IC50 in the assay with TNF [1] was under 20 µM. On SIRT1, the EC1.5 (concentration giving 1.5-fold activation) is under 1000 nM and the Emax is over 200%.
`O=C(Nc1ccnc(OC[C@H](O)CO)c1)N1CCCOc2ccc(-c3cccc(Cl)c3)nc21` [Compound 864]: the IC50 with TNF [1] was under 20 µM. For the same molecule, at SIRT1, the EC1.5 (concentration giving 1.5-fold activation) lay in the range of 1000 to 25000 nM and the Emax is over 200%.
The like results for `O=C(Nc1ccccn1)N1CCc2ccc(-c3cccc(C(F)(F)F)c3)nc21` [Compound 861, N-(pyridin-2-yl)-6-(3-(trifluoromethyl)phenyl)-2,3-dihydro-1H-pyrrolo[2,3-b]pyridine-1-carboxamide] were, in that order, at least 20 µM, under 1000 nM and over 200%.
The matching figures for `CC1(C)CCN(C(=O)Nc2ccncn2)c2nc(-c3cccc(C(F)(F)F)c3)ccc21` [Compound 838]: at least 20 µM, under 1000 nM and over 200%.
The like results for `O=C(Nc1ccnc(N2CCC2)c1)N1CCOc2cnc(-c3cccc(C(F)(F)F)c3)nc21` [Compound 713] were, in that order, at least 20 µM, under 1000 nM and over 200%.
`O=C(Nc1cccc(OC[C@@H](O)CO)n1)N1CCC(F)(F)c2ccc(-c3cccc(C(F)(F)F)c3)nc21` [Compound 745] yielded an IC50 with TNF [1] of under 20 µM. Moreover, at SIRT1, the EC1.5 (concentration giving 1.5-fold activation) is under 1000 nM and the Emax is over 200%.
The like results for `O=C(Nc1ccncc1F)N1CCc2ccc(-c3cccc(C(F)(F)F)c3)nc21` [Compound 870] were, in that order, under 20 µM, under 1000 nM and over 200%.
`O=C(Nc1cnc(OC[C@H](O)CO)cn1)N1CCCOc2ccc(-c3cccc(Cl)c3)nc21` [Compound 878] yielded an IC50 in the assay on TNF [1] of under 20 µM. Besides, at SIRT1, the EC1.5 (concentration giving 1.5-fold activation) was under 1000 nM and the Emax is over 200%.
The matching figures for `Cc1csc(NC(=O)N2CC(C)(C)Oc3ccc(-c4cccc(N5CC[C@@H](F)C5)c4)nc32)n1` [Compound 707]: at least 20 µM, under 1000 nM and over 200%.
In the case of `O=C(Nc1ccnc(OCC(O)CO)n1)N1CCc2ccc(-c3cccc(C(F)(F)F)c3)nc21` (stereo not drawn) [Compound 874], in the assay with TNF [1], the IC50 is at least 20 µM. Also, on SIRT1, the EC1.5 (concentration giving 1.5-fold activation) is under 1000 nM and the Emax was over 200%.
For `O=C(Nc1ccncn1)N1CCOc2ccc(-c3cccc(C(F)(F)F)c3)nc21` [Compound 503], in the assay on TNF [2], the IC50 is at least 20 µM. At SIRT1, the Emax was over 200% and the EC1.5 entry is “A (EC1.5<1.0 μM)”.
`Cc1cncc(NC(=O)N2CCOc3c(C)cc(-c4cccc(Cl)c4)nc32)c1` [Compound 688] returned an IC50 with TNF [2] of at least 20 µM. In addition, at SIRT1, the Emax was over 200% and the EC1.5 entry is “A (EC1.5<1.0 μM)”.
The matching figures for `O=C(Nc1ccncc1F)N1CCOc2ccc(-c3cccc(C(F)(F)F)c3)nc21` [Compound 549]: at least 20 µM, over 200% and “A (EC1.5<1.0 μM)”.
With `Cc1csc(NC(=O)N2CC(C)(C)Oc3ccc(-c4cccc(F)c4)nc32)n1` [Compound 622], the IC50 in the assay on TNF [2] was at least 20 µM. On SIRT1, the Emax was over 200% and the EC1.5 entry is “A (EC1.5<1.0 μM)”.
The matching figures for `Cc1cc(NC(=O)N2CCOc3ccc(-c4cccc(C(F)(F)F)c4)nc32)cc(C)n1` [Compound 556]: under 20 µM, over 200% and “A (EC1.5<1.0 μM)”.
`O=C(Nc1ccnc(N2CCCC2)c1)N1CCOc2ccc(-c3cccc(C(F)(F)F)c3)nc21` [Compound 508]: the IC50 in the assay on TNF [2] is at least 20 µM. Further, on SIRT1, the Emax was over 200% and the EC1.5 result was “A (EC1.5<1.0 μM)”.

For the origin of these results see patent publication US9556201B2, “Bicyclic pyridines and analogs as sirtuin modulators” (GLAXOSMITHKLINE LLC, priority 2009, dated 2017).
